# Data reported in ChEMBL document CHEMBL4419164, “Methods and compositions for inhibiting cnksr1” (2018).
# Active and inactive are the calls of the source. No cut-off for these calls is given here.
# Experiments:
# NCI-H2122 [1] = experiment: Growth inhibition of human NCI-H2122 cells incubated for 3 days; format: functional, cell-based; settings: NCI-H2122, 72 h
# [2] = molecular target: T1, Connector enhancer of kinase suppressor of ras 1 (Homo sapiens) (UniProt Q969H4); experiment: Inhibition of GFP-tagged CNKSR1 (unknown origin) expressed in HEK293T cells assessed as reduction in total mutant-KRas protein at 50 uM incubated for 4 hrs by confocal imaging assay; format: cell-based
# T1 sequence (whole entry): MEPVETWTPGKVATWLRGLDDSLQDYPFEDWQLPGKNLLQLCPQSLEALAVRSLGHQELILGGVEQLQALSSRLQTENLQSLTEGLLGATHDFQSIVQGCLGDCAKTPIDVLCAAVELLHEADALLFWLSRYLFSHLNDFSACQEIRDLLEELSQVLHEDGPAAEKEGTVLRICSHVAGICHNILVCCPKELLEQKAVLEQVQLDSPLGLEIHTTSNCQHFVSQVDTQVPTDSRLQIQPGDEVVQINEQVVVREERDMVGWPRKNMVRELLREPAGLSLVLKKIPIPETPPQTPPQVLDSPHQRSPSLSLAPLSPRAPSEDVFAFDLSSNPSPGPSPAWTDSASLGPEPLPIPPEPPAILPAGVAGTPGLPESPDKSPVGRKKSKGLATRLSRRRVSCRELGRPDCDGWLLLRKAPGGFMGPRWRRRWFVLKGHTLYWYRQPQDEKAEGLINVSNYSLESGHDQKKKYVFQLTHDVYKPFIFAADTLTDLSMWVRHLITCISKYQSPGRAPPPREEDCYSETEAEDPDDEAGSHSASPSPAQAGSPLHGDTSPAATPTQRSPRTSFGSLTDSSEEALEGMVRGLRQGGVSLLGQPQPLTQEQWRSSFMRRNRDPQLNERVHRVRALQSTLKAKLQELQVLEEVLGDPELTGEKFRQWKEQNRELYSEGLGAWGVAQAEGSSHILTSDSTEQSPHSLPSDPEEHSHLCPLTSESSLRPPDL
# NCI-H2122 [3] = experiment: Antitumor activity against human NCI-H2122 cells xenografted in SCID mouse assessed as inhibition of tumor growth at 200 mg/kg/day dosed via gavage daily for 20 days relative to control; format: functional; settings: NCI-H2122, po, 480 h, read-out: TGI
# [4] = Plasma concentration in C57BL6 mouse at 250 mg/kg, po dosed via gavage as single administration; format: ADME, organism-based; settings: in vivo
# A549 = experiment: Growth inhibition of human A549 cells relative to control; format: functional, cell-based
# [5] = Half life in mouse plasma at 50 ug/ml at 37 degC at pH 7.4; format: ADME, cell-free
# HCC95 = experiment: Growth inhibition of human HCC95 cells incubated for 3 days; format: functional, cell-based; settings: HCC95, 72 h
# [6] = Growth inhibition of human […] cells incubated for 3 days; format: functional; settings: 72 h
# [7] = Toxicity in SCID mouse xenografted with human NCI-H2122 cells assessed as induction of weight loss at 200 mg/kg/day dosed via gavage daily for 20 days; format: organism-based; settings: in vivo, po, 480 h
# NCI-H2122 [8] = experiment: Growth inhibition of human NCI-H2122 cells relative to control; format: functional, cell-based
# [9] = Half life in beagle dog plasma at 50 ug/ml at 37 degC at pH 7.4; format: ADME, cell-free, Canis lupus familiaris
# [10] = Drug metabolism in C57BL6 mouse plasma assessed as Cmax for 2-(4-oxo-3-((4-p-tolylthiazol-2-yl)methyl)-3,4-dihydrophthalazin-1-yl)acetic acid at 250 mg/kg, po dosed via gavage as single administration; format: ADME, organism-based; set-up: dose 250 mg/kg, route oral; settings: in vivo
# [11] = Half life in 10% fetal bovine serum at 50 ug/ml at 37 degC at pH 7.4; format: ADME, cell-free, Bos taurus; settings: cattle
# [12] = Half life in human plasma at 50 ug/ml at 37 degC at pH 7.4; format: ADME, cell-free
# [13] = molecular target: T2, carboxylesterase 1 (liver carboxylesterase 1) (Homo sapiens, UniProt P23141); experiment: Stability assessed as recombinant human carboxyesterase-1 mediated compound hydrolysis by measuring half life at 50 ug/ml at 37 degC at pH 7.4; format: ADME; settings: recombinant human carboxylesterase-1, pH 7.4
# T2 sequence (P23141 whole entry): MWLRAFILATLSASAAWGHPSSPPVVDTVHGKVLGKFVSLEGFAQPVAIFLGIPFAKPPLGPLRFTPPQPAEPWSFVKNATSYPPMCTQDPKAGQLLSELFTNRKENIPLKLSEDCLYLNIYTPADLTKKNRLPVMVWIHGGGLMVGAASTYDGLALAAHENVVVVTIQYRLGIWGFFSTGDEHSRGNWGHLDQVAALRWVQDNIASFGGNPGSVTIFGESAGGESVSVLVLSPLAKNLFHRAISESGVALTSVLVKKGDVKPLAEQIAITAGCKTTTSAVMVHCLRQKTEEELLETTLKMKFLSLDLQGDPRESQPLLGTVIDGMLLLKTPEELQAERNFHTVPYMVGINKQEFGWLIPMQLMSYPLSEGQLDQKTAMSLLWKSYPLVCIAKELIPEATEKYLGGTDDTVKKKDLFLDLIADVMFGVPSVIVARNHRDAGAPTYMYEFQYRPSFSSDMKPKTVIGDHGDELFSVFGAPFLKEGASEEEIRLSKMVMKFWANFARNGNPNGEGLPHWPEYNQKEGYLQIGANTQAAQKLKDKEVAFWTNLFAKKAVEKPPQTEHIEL
smiles,measurement,setting,value
CCOC(=O)Cc1nn(Cc2nc(-c3ccc(C)cc3)cs2)c(=O)c2ccccc12,IC50,NCI-H2122 [1],27 µM
same,inhibition,[2],Active
same,inhibition in vivo at 200 mg/kg/day,NCI-H2122 [3],45%
same,concentration,[4],7 µM
same,growth inhibition (GI),A549,Active
same,half-life at 50 ug/ml,[5],6.3 min
same,IC50,HCC95,> 100 µM
same,IC50,[6],51 µM
same,Activity,[7],Non-Toxic
same,growth inhibition (GI),NCI-H2122 [8],Active
same,half-life at 50 ug/ml,[9],9.3 h
same,Cmax,[10],128 µM
same,half-life at 50 ug/ml,[11],13.2 h
same,t1/2,[12],Stable
same,half-life at 50 ug/ml,[13],0.317 h
